Test results from patent publication US20170355686A1, “NOVEL OXAZOLE COMPOUNDS AS BETA CATENIN MODULATORS AND USES THEREOF” (NEW YORK UNIVERSITY, priority 2014, published 2017).

System: Wnt reporter
Experiment: Wnt reporter (Super 8X Topflash, TCF promoter) luciferase IC50 assay in STF and STF3A cells
Format: cell-based
Settings: for inhibition of the Wnt reporter: HEK293 cells stimulated with either exogenous (STF) or endogenous Wnt 3a (STF3a); for IC50: range over STF (exogenous Wnt3a, paracrine) and STF3A (endogenous Wnt3a, autocrine) HEK293 cells, 24 hours incubation
Description: STF and STF3A cells were cultured in DMEM, 4500 mg/L glucose supplemented with 10% fetal bovine serum, 2 mM L-glutamine, 110 mg/L sodium pyruvate and Penicillin/Streptomycin.
STF cells are HEK293 cells stably expressing the Super 8X Topflash M50 (http://www.addgene.org/12456/; the entire content of which is incorporated herein by reference) reporter. STF3A cells are HEK293 cells stably expressing both Super 8X Topflash reporter and pPGK-mWnt3A. The above cell lines are a gift from David Virshup.
L-Wnt3A cells were cultured in DMEM, 4500 mg/L glucose supplemented with 10% fetal bovine serum and 2 mM L-glutamine and 110 mg/L sodium pyruvate and Penicillin/Streptomycin. Wnt3A-Conditioned media was prepared with L-Wnt3A cells cultured according to recommended protocols from ATCC (http://www.atcc.org/products/all/CRL-2647.aspx#culturemethod).
Unless otherwise indicated, all experiments described herein that call for supplemental Wnt3a utilize Wnt3a conditioned media prepared by harvesting media from L-cells stably transfected with a Wnt3a coding construct (available from ATCC #CRL-2647). The cells are cultured in DMEM containing 10% fetal bovine serum (FBS). The medium, harvested from adherent cells cultured to about 80% confluency over 4 days, is purified through a 0.2 μm filter and stored at 4° C. over several months without an appreciable loss in activity [Willert et al. Nature 423, 448-52 (2003)].
STF and STF3A cells were seeded in 96 well plates, with 20,000 cells in 100 μL media per well. Following 16 hours incubation, 50 μL of media per well containing STF cells were replaced with the same volume of Wnt3A-Conditioned media.
iCRT3 and analogs were tested in triplicates at a concentration range of 50 μM-0.00013 μM, at 5-fold dilutions. Cells were incubated with the compounds for 24 hours.
Cell viability was measured after incubation with 100 μL of PrestoBlue® Cell Viability Reagent in DMEM (1:9) for 30 minutes. Following fluorescence measurements, media containing PrestoBlue reagents was aspirated. Cell were lysed in 60 μL of Dual-Glo® Reagent from the Dual-Glo® Luciferase Assay System. Luciferase activity was quantified with a luminometer after 10 minutes of incubation at room temperature.
Background subtracted luminescence readings (RLU) from the Dual-Glo® Luciferase assay were normalized against background subtracted fluorescence values (RFU) from the PrestoBlue® Cell Viability assay.
The RLU/RFU values were plotted using GraphPad Prism (www.graphpad.com). The curve was fitted with a three parameter curve fitting equation: Y=Min value+(Max value−Min value)/[1+10̂(X−lg IC50)].
Cell lines tested include STF, which are HEK293 cells expressing firefly luciferase under the control of the TCF promoter, and STF3A, which are the same as STF but also expresses Wnt3a constitutively. The two cell lines facilitate the testing of the compounds in the context of Wnt signaling activated in a paracrine (STF) versus autocrine (STF3A) fashion.
Day 0—Seed cells in 96-well plates (20,000 cells per well)
Day 1—Add compounds. For STF cells, half of the medium was also changed to Wnt3a conditioned medium.
Day 2—Measure PrestoBlue (cell viability) and Dual-Glo luciferase (TCF promoter activity).
The concentration range for iCRT3 was 10 μM-0.0000001 μM. All other compounds were tested at a concentration range of 10 μM-0.000026 μM.

| SMILES | inhibition of the Wnt reporter | IC50 |
| --- | --- | --- |
| CCc1ccc(-c2nc(CSCC(=O)NCCc3ccc(F)cc3)c(C)o2)cc1 [II-1, 2-[2-(4-ethyl-phenyl)-5-methyl-oxazol-4-ylmethylsulfanyl]-N-[2-(4-fluoro-phenyl)-ethyl]-acetamide] | dose dependent inhibition | 2 to 8 µM |
| CCc1ccc(-c2nc(CSCC(=O)NCCc3ccccc3)c(C)o2)cc1 [iCRT3, reference compound] | dose dependent inhibition | 14 to 30 µM |
| CCc1ccc(-c2nc(CSCC(=O)NCCc3cccnc3)c(C)o2)cc1 [II-7] | dose dependent inhibition | 2 to 8 µM |
